Test results taken from the supplement of paper PMC9013687.
± gives the standard deviation of the averaged measurements.

Legend:
Danio rerio embryo [1] = details: exposure time: 2 dpf
Procedure: (§1)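 Zebrafish embryos (UFZ-OBI strain) were exposed from 2 hpf for 48 h (2 dpf) or 96 h (4 dpf) at 28 °C; spontaneous tail coiling was scored at 25 hpf. Morphological features from automated image analysis (FishInspector), heart rate and locomotor response were fitted with drc models. Quantal endpoints were dichotomised at 2.5 SD from controls and fitted with a log-logistic model; heart rate, pigmentation and STC were normalised to the replicate control mean. Betamethasone was tested as betamethasone dipropionate, diflorasone as diflorasone diacetate.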

Danio rerio embryo [2] = assay: EC20 Curvature_Increase; higher = less potent
Procedure: as §1

Danio rerio embryo [3] = assay: EC50 Head trunk angle_Decrease; details: exposure time: 2 dpf
Procedure: as §1

Danio rerio embryo [4] = assay: EC50 Pericard size_Increase
Procedure: as §1

Danio rerio embryo [5] = assay: EC20 Pigmentation decrease; higher = less potent; details: exposure time: 2 dpf
Procedure: as §1

Danio rerio embryo [6] = assay: EC10 Pericard size_Increase; higher = less potent
Procedure: as §1

Danio rerio embryo [7] = assay: EC10 Body length_Decrease; higher = less potent; details: exposure time: 2 dpf
Procedure: as §1

Danio rerio embryo [8] = assay: EC20 Body length_Decrease; higher = less potent; details: exposure time: 2 dpf
Procedure: as §1

Danio rerio embryo [9] = assay: EC20 Any effect; higher = less potent
Procedure: as §1

Danio rerio embryo [10] = assay: EC20 Head size_Decrease; higher = less potent
Procedure: as §1

Danio rerio embryo [11] = assay: EC10 Head trunk angle_Decrease; higher = less potent; details: exposure time: 2 dpf
Procedure: as §1

Danio rerio embryo [12] = assay: EC50 Body length_Decrease; details: exposure time: 2 dpf
Procedure: as §1

Danio rerio embryo [13] = assay: EC10 Any effect; higher = less potent
Procedure: as §1

Danio rerio embryo [14] = assay: EC20 Eye size_Decrease; higher = less potent; details: exposure time: 2 dpf
Procedure: as §1

Danio rerio embryo [15] = assay: EC20 Pericard size_Increase; higher = less potent
Procedure: as §1

Danio rerio embryo [16] = assay: EC20 Bladder size_Decrease; higher = less potent; details: exposure time: 4 dpf
Procedure: as §1

Danio rerio embryo [17] = assay: EC10 Curvature_Increase; higher = less potent
Procedure: as §1

Danio rerio embryo [18] = assay: EC50 Bladder size_Decrease; details: exposure time: 4 dpf
Procedure: as §1

Danio rerio embryo [19] = assay: EC10 Pigmentation decrease; higher = less potent; details: exposure time: 2 dpf
Procedure: as §1

Danio rerio embryo [20] = assay: EC20 Head trunk angle_Decrease; higher = less potent; details: exposure time: 2 dpf
Procedure: as §1

Danio rerio embryo [21] = assay: EC50 Eye size_Decrease; details: exposure time: 2 dpf
Procedure: as §1

Danio rerio embryo [22] = assay: spontaneous tail coiling frequency (coils/min/embryo); higher = more spontaneous movement; details: 25 hpf
Procedure: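 Spontaneous tail coilings of zebrafish embryos exposed from 2 hpf were recorded at 24-25 hpf in 1-min videos and detected by a KNIME workflow from grey-value variance. Betamethasone was tested as the dipropionate, diflorasone as the diacetate.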

Danio rerio embryo [23] = assay: EC50 Curvature_Increase
Procedure: as §1

Danio rerio embryo [24] = assay: EC10 Head size_Decrease; higher = less potent
Procedure: as §1

Danio rerio embryo [25] = details: exposure time: 4 dpf
Procedure: as §1

Danio rerio embryo [26] = test system: Danio rerio embryo
Procedure: as §1

Danio rerio embryo [27] = assay: EC10 Eye size_Decrease; higher = less potent; details: exposure time: 2 dpf
Procedure: as §1

Danio rerio embryo [28] = assay: EC10 Bladder size_Decrease; higher = less potent; details: exposure time: 4 dpf
Procedure: as §1

Danio rerio embryo [29] = assay: EC50 Head size_Decrease
Procedure: as §1

Danio rerio embryo [30] = assay: EC10 Lack of SB; higher = less potent; details: exposure time: 4 dpf
Procedure: as §1

Danio rerio embryo [31] = assay: EC20 Lack of SB; higher = less potent; details: exposure time: 4 dpf
Procedure: as §1

COC(=O)Nc1nc2ccccc2[nH]1 [Carbendazim]
Details	EC10 Bladder size Decrease [µM]	EC10 Body length Decrease [µM]	EC10 Eye size Decrease [µM]	EC10 Head trunk angle Decrease [µM]	EC10 Lack of SB [µM]	EC10 Pigmentation decrease [µM]	EC20 Bladder size Decrease [µM]	EC20 Body length Decrease [µM]	EC20 Eye size Decrease [µM]	EC20 Head trunk angle Decrease [µM]	EC20 Lack of SB [µM]	EC20 Pigmentation decrease [µM]	EC50 Bladder size Decrease [µM]	EC50 Body length Decrease [µM]	EC50 Eye size Decrease [µM]	EC50 Head trunk angle Decrease [µM]	EC50 Lack of SB [µM]	EC50 Pigmentation decrease [µM]
Danio rerio embryo [1]	–	–	–	–	–	–	–	–	–	–	–	–	–	–	–	–	–	3.34
Danio rerio embryo [3]	–	–	–	–	–	–	–	–	–	–	–	–	–	–	–	3.47	–	–
Danio rerio embryo [5]	–	–	–	–	–	–	–	–	–	–	–	2.8	–	–	–	–	–	–
Danio rerio embryo [7]	–	2.9	–	–	–	–	–	–	–	–	–	–	–	–	–	–	–	–
Danio rerio embryo [8]	–	–	–	–	–	–	–	2.95	–	–	–	–	–	–	–	–	–	–
Danio rerio embryo [11]	–	–	–	2.73	–	–	–	–	–	–	–	–	–	–	–	–	–	–
Danio rerio embryo [12]	–	–	–	–	–	–	–	–	–	–	–	–	–	3.04	–	–	–	–
Danio rerio embryo [14]	–	–	–	–	–	–	–	–	2.9	–	–	–	–	–	–	–	–	–
Danio rerio embryo [16]	–	–	–	–	–	–	1.33	–	–	–	–	–	–	–	–	–	–	–
Danio rerio embryo [18]	–	–	–	–	–	–	–	–	–	–	–	–	2.25	–	–	–	–	–
Danio rerio embryo [19]	–	–	–	–	–	2.53	–	–	–	–	–	–	–	–	–	–	–	–
Danio rerio embryo [20]	–	–	–	–	–	–	–	–	–	2.98	–	–	–	–	–	–	–	–
Danio rerio embryo [21]	–	–	–	–	–	–	–	–	–	–	–	–	–	–	3.3	–	–	–
Danio rerio embryo [25]	–	–	–	–	–	–	–	–	–	–	–	–	–	–	–	–	2.7	–
Danio rerio embryo [27]	–	–	2.69	–	–	–	–	–	–	–	–	–	–	–	–	–	–	–
Danio rerio embryo [28]	0.977	–	–	–	–	–	–	–	–	–	–	–	–	–	–	–	–	–
Danio rerio embryo [30]	–	–	–	–	2.3	–	–	–	–	–	–	–	–	–	–	–	–	–
Danio rerio embryo [31]	–	–	–	–	–	–	–	–	–	–	2.44	–	–	–	–	–	–	–

Details	EC10 Any effect [µM]	EC10 Curvature Increase [µM]	EC10 Head size Decrease [µM]	EC10 Pericard size Increase [µM]	EC20 Any effect [µM]	EC20 Curvature Increase [µM]	EC20 Head size Decrease [µM]	EC20 Pericard size Increase [µM]	EC50 Any effect [µM]	EC50 Curvature Increase [µM]	EC50 Head size Decrease [µM]	EC50 Pericard size Increase [µM]	spontaneous tail coiling frequency
Danio rerio embryo [2], exposure time: 2 dpf	–	–	–	–	–	2.9	–	–	–	–	–	–	–
Danio rerio embryo [2], exposure time: 4 dpf	–	–	–	–	–	2.88	–	–	–	–	–	–	–
Danio rerio embryo [4], exposure time: 2 dpf	–	–	–	–	–	–	–	–	–	–	–	3.43	–
Danio rerio embryo [4], exposure time: 4 dpf	–	–	–	–	–	–	–	–	–	–	–	2.99	–
Danio rerio embryo [6], exposure time: 2 dpf	–	–	–	2.94	–	–	–	–	–	–	–	–	–
Danio rerio embryo [6], exposure time: 4 dpf	–	–	–	2.63	–	–	–	–	–	–	–	–	–
Danio rerio embryo [9], exposure time: 2 dpf	–	–	–	–	2.98	–	–	–	–	–	–	–	–
Danio rerio embryo [9], exposure time: 4 dpf	–	–	–	–	2.85	–	–	–	–	–	–	–	–
Danio rerio embryo [10], exposure time: 2 dpf	–	–	–	–	–	–	3.05	–	–	–	–	–	–
Danio rerio embryo [13], exposure time: 2 dpf	2.93	–	–	–	–	–	–	–	–	–	–	–	–
Danio rerio embryo [13], exposure time: 4 dpf	2.72	–	–	–	–	–	–	–	–	–	–	–	–
Danio rerio embryo [15], exposure time: 2 dpf	–	–	–	–	–	–	–	3.11	–	–	–	–	–
Danio rerio embryo [15], exposure time: 4 dpf	–	–	–	–	–	–	–	2.76	–	–	–	–	–
Danio rerio embryo [17], exposure time: 2 dpf	–	2.71	–	–	–	–	–	–	–	–	–	–	–
Danio rerio embryo [17], exposure time: 4 dpf	–	2.68	–	–	–	–	–	–	–	–	–	–	–
Danio rerio embryo [22], 0.23 µM	–	–	–	–	–	–	–	–	–	–	–	–	2.14
Danio rerio embryo [22], 0.344 µM	–	–	–	–	–	–	–	–	–	–	–	–	1.91
Danio rerio embryo [22], 0.517 µM	–	–	–	–	–	–	–	–	–	–	–	–	2.25
Danio rerio embryo [22], 0.775 µM	–	–	–	–	–	–	–	–	–	–	–	–	2.51 ± 0.64
Danio rerio embryo [22], 1.16 µM	–	–	–	–	–	–	–	–	–	–	–	–	1.06
Danio rerio embryo [22], 1.162 µM	–	–	–	–	–	–	–	–	–	–	–	–	2.68
Danio rerio embryo [22], 1.74 µM	–	–	–	–	–	–	–	–	–	–	–	–	1.81
Danio rerio embryo [22], 1.743 µM	–	–	–	–	–	–	–	–	–	–	–	–	1.56
Danio rerio embryo [22], 2.615 µM	–	–	–	–	–	–	–	–	–	–	–	–	2.98
Danio rerio embryo [22], 2.62 µM	–	–	–	–	–	–	–	–	–	–	–	–	2.11
Danio rerio embryo [22], 3.138 µM	–	–	–	–	–	–	–	–	–	–	–	–	4.11
Danio rerio embryo [22], 3.661 µM	–	–	–	–	–	–	–	–	–	–	–	–	3.75
Danio rerio embryo [23], exposure time: 2 dpf	–	–	–	–	–	–	–	–	–	3.27	–	–	–
Danio rerio embryo [23], exposure time: 4 dpf	–	–	–	–	–	–	–	–	–	3.26	–	–	–
Danio rerio embryo [24], exposure time: 2 dpf	–	–	2.81	–	–	–	–	–	–	–	–	–	–
Danio rerio embryo [26], exposure time: 2 dpf	–	–	–	–	–	–	–	–	3.05	–	–	–	–
Danio rerio embryo [26], exposure time: 4 dpf	–	–	–	–	–	–	–	–	3.09	–	–	–	–
Danio rerio embryo [29], exposure time: 2 dpf	–	–	–	–	–	–	–	–	–	–	3.51	–	–

COc1cccc2c1C(=O)c1c(O)c3c(c(O)c1C2=O)C[C@@](O)(C(C)=O)C[C@@H]3O[C@H]1C[C@H](N)[C@H](O)[C@H](C)O1 [Daunorubicin]
Details	EC10 Bladder size Decrease [µM]	EC10 Body length Decrease [µM]	EC10 Lack of SB [µM]	EC20 Bladder size Decrease [µM]	EC20 Body length Decrease [µM]	EC20 Lack of SB [µM]	EC50 Bladder size Decrease [µM]	EC50 Body length Decrease [µM]	EC50 Lack of SB [µM]
Danio rerio embryo [7]	–	68.5	–	–	–	–	–	–	–
Danio rerio embryo [8]	–	–	–	–	80.4	–	–	–	–
Danio rerio embryo [12]	–	–	–	–	–	–	–	106	–
Danio rerio embryo [16]	–	–	–	17.5	–	–	–	–	–
Danio rerio embryo [18]	–	–	–	–	–	–	46.8	–	–
Danio rerio embryo [25]	–	–	–	–	–	–	–	–	72.3
Danio rerio embryo [28]	9.82	–	–	–	–	–	–	–	–
Danio rerio embryo [30]	–	–	13.3	–	–	–	–	–	–
Danio rerio embryo [31]	–	–	–	–	–	24.9	–	–	–

Details	EC10 Any effect [µM]	EC10 Head size Decrease [µM]	EC20 Any effect [µM]	EC20 Head size Decrease [µM]	EC50 Any effect [µM]	EC50 Head size Decrease [µM]	spontaneous tail coiling frequency
Danio rerio embryo [9], exposure time: 2 dpf	–	–	68.6	–	–	–	–
Danio rerio embryo [9], exposure time: 4 dpf	–	–	87.6	–	–	–	–
Danio rerio embryo [10], exposure time: 4 dpf	–	–	–	19.7	–	–	–
Danio rerio embryo [13], exposure time: 2 dpf	38.3	–	–	–	–	–	–
Danio rerio embryo [13], exposure time: 4 dpf	85.9	–	–	–	–	–	–
Danio rerio embryo [22], 17.5 µM	–	–	–	–	–	–	2.64
Danio rerio embryo [22], 23.3 µM	–	–	–	–	–	–	1.8
Danio rerio embryo [22], 26.3 µM	–	–	–	–	–	–	3.47
Danio rerio embryo [22], 35 µM	–	–	–	–	–	–	2.25
Danio rerio embryo [22], 39.4 µM	–	–	–	–	–	–	2.69
Danio rerio embryo [22], 52.5 µM	–	–	–	–	–	–	2.33
Danio rerio embryo [22], 59.1 µM	–	–	–	–	–	–	2.7
Danio rerio embryo [22], 78.8 µM	–	–	–	–	–	–	2.14
Danio rerio embryo [22], 88.7 µM	–	–	–	–	–	–	2.85
Danio rerio embryo [24], exposure time: 4 dpf	–	12.4	–	–	–	–	–
Danio rerio embryo [26], exposure time: 2 dpf	–	–	–	–	185	–	–
Danio rerio embryo [26], exposure time: 4 dpf	–	–	–	–	90.6	–	–
Danio rerio embryo [29], exposure time: 4 dpf	–	–	–	–	–	43.4	–
